Test results from US20080234262A1 (Wyeth, priority 2007, published 2008).
pIC50: −log10 of the molar value. Where two headings read alike, the source gives them in different places.

Legend:
[1] = biological target: PI3K (Homo sapiens, UniProt P42336); assay: Fluorescence polarization assay for PI3K; format: biochemical;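 note: PI3K kinase reaction on PIP2 with ATP, 30-60 min, product sensed by GST-GRP with red probe in fluorescence polarization (mP), controls without enzyme and at zero time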
[2] = system: prostate line LNCap; assay: In vitro cell culture growth assay (MTS), LNCap; format: cell-based, human; conditions: LNCap cells, three days after drug treatment;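 note: viable cell density read by absorbance at 490 nm, growth expressed as percent of vehicle-treated cells on the same plate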
[3] = system: breast line MDA468; assay: In vitro cell culture growth assay (MTS), MDA468; format: cell-based, human; conditions: MDA468 cells, three days after drug treatment
How it was run: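 Steps: plate cells; add inhibitors the next day; incubate 3 days; add MTS dye, which viable cells convert metabolically; measure absorbance at 490 nm; calculate percent of control growth relative to vehicle-treated cells in the same plate.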

Sequence of PI3K (P42336 whole entry): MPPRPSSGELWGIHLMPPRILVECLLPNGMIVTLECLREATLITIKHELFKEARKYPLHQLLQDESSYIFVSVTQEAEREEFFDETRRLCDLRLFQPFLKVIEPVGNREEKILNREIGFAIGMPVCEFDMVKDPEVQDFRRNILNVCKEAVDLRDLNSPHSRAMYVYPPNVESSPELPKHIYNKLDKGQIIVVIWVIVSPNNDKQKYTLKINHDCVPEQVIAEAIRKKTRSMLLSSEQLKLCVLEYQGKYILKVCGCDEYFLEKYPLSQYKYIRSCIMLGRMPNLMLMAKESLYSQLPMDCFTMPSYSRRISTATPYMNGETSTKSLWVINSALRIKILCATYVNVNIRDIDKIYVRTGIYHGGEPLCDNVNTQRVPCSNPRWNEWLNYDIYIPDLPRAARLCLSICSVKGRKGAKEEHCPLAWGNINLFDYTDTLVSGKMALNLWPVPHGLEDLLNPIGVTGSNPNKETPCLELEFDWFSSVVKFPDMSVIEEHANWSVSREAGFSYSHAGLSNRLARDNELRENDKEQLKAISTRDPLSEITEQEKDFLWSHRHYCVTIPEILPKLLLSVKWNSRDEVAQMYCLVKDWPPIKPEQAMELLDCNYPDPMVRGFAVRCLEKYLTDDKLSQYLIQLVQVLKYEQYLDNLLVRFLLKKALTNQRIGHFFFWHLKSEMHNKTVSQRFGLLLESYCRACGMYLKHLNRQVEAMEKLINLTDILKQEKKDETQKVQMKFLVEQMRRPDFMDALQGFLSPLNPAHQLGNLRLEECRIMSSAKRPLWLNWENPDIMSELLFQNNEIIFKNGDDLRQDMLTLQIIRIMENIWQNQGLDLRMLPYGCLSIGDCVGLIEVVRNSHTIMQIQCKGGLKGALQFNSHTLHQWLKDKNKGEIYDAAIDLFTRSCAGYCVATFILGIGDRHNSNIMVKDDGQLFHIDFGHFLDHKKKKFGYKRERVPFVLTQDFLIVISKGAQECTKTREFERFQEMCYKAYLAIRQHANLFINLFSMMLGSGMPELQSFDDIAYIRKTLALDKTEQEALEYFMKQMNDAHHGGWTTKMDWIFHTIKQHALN
Sequence of PI3K (P27986 whole entry partner): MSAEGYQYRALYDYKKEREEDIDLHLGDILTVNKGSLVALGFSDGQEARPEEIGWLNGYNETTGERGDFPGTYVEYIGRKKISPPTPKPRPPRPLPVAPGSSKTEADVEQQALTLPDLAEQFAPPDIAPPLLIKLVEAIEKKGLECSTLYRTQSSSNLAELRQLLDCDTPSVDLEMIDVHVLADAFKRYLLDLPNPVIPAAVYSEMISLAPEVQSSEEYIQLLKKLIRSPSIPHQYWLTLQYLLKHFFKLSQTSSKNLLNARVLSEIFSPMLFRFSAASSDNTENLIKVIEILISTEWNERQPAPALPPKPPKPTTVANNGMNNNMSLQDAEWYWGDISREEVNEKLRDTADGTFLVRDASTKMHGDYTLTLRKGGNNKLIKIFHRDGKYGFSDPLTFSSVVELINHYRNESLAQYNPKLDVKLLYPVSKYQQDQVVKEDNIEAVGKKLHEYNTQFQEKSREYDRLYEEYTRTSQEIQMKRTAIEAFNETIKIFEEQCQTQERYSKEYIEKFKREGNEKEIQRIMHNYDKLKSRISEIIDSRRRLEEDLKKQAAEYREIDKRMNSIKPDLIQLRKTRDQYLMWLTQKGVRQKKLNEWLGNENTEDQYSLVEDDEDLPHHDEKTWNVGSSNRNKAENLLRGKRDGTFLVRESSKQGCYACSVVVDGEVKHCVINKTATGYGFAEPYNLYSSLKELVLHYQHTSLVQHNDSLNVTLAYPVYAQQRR

| SMILES | pIC50 ([1]; PI3Kα, read-out: PI3Kα IC50) | pIC50 ([2]; Homo sapiens, LNCaP, 72 h) | pIC50 [2] | pIC50 ([3]; Homo sapiens, 72 h) | pIC50 [3] | pIC50 ([1]; PI3Kα IC50, PI3Kα) | pIC50 ([2]; Homo sapiens, 72 h) |
| --- | --- | --- | --- | --- | --- | --- | --- |
| c1cc2cc(-c3nc(N4CCOCC4)c4cnn(C5CCCCO5)c4n3)ccc2[nH]1 (stereo not drawn) [Compound 237, 6-(1H-indol-5-yl)-4-morpholin-4-yl-1-(tetrahydro-2H-pyran-2-yl)-1H-pyrazolo[3,4-d]pyrimidine] | 5.62 | 5.38 | – | 6.00 | – | – | – |
| CNC(=O)Nc1ccc(-c2nc(N3CCOCC3)c3cnn(C4CCN(Cc5cncc(Br)c5)CC4)c3n2)cc1 [Compound 638, 1-[4-(1-{1-[(5-bromopyridin-3-yl)methyl]piperidin-4-yl}-4-morpholin-4-yl-1H-pyrazolo[3,4-d]pyrimidin-6-yl)phenyl]-3-methylurea] | 7.14 | – | 7.02 | – | 6.25 | – | – |
| O=C(Nc1ccc(-c2nc(N3CCOCC3)c3cnn(C4CCN(CC(F)(F)F)CC4)c3n2)cc1)Nc1cccnc1 [Compound 787, 1-(4-{4-morpholin-4-yl-1-[1-(2,2,2-trifluoroethyl)piperidin-4-yl]-1H-pyrazolo[3,4-d]pyrimidin-6-yl}phenyl)-3-pyridin-3-ylurea] | 7.40 | 7.57 | – | 6.85 | – | – | – |
| CNC(=O)Nc1ccc(-c2nc(N3CCOCC3)c3cnn(C4CCN(C(=O)C(F)(F)F)CC4)c3n2)cc1 [Compound 763, 1-methyl-3-(4-{4-morpholin-4-yl-1-[1-(trifluoroacetyl)piperidin-4-yl]-1H-pyrazolo[3,4-d]pyrimidin-6-yl}phenyl)urea] | 6.81 | 6.57 | – | 6.30 | – | – | – |
| CCOC(=O)N1CCC(n2ncc3c(N4CCOCC4)nc(-c4ccc(NC(=O)OC)cc4)nc32)CC1 [Compound 805, ethyl 4-(6-{4-[(methoxycarbonyl)amino]phenyl}-4-morpholin-4-yl-1H-pyrazolo[3,4-d]pyrimidin-1-yl)piperidine-1-carboxylate] | 5.57 | 6.29 | – | 6.10 | – | – | – |
| c1ccc(CN2CCC(n3ncc4c(N5CCOCC5)nc(-c5cn[nH]c5)nc43)CC2)cc1 [Compound 189] | 6.12 | 5.49 | – | 5.08 | – | – | – |
| CNC(=O)Nc1ccc(-c2nc(N3CCOCC3)c3cnn(C4CCN(Cc5ccccc5C)CC4)c3n2)cc1 [Compound 673, 1-methyl-3-(4-{1-[1-(2-methylbenzyl)piperidin-4-yl]-4-morpholin-4-yl-1H-pyrazolo[3,4-d]pyrimidin-6-yl}phenyl)urea] | 7.30 | – | 7.40 | – | 6.74 | – | – |
| COC(=O)Nc1ccc(-c2nc(N3CCOCC3)c3cn[nH]c3n2)cc1 [Compound 525, methyl [4-(4-morpholin-4-yl-1H-pyrazolo[3,4-d]pyrimidin-6-yl)phenyl]carbamate] | 6.21 | 5.52 | – | 4.92 | – | – | – |
| O=C(NCCF)Nc1ccc(-c2nc(N3CCOCC3)c3cnn(C4CCN(C(=O)c5cccnc5)CC4)c3n2)c(F)c1 [Example 463, 1-(2-fluoroethyl)-3-(3-fluoro-4-{4-morpholin-4-yl-1-[1-(pyridin-3-ylcarbonyl)piperidin-4-yl]-1H-pyrazolo[3,4-d]pyrimidin-6-yl}phenyl)urea] | 5.76 | 5.92 | – | 5.92 | – | – | – |
| CNS(=O)(=O)c1ccc(-c2nc(N3CCOCC3)c3cnn(C4CCN(Cc5ccccc5)CC4)c3n2)cc1 [Compound 86] | 5.33 | 5.14 | – | 5.19 | – | – | – |
| Oc1cccc(-c2nc(N3CCOCC3)c3cnn(CCN4CCOCC4)c3n2)c1 [Compound 165] | 6.75 | 5.52 | – | 4.92 | – | – | – |
| COC(=O)N1CCC(n2ncc3c(N4CCOCC4)nc(-c4ccc(NC(=O)Oc5ccccc5)cc4)nc32)CC1 [Compound 945, methyl 4-(4-morpholin-4-yl-6-{4-[(phenoxycarbonyl)amino]phenyl}-1H-pyrazolo[3,4-d]pyrimidin-1-yl)piperidine-1-carboxylate] | – | – | – | 4.70 | – | < 5.00 | 5.30 |
| COC(=O)Nc1ccc(-c2nc(N3CCOCC3)c3cnn(C4CCN(Cc5ccc(Cl)nc5)CC4)c3n2)cc1 [Example 454, methyl [4-(1-{1-[(6-chloropyridin-3-yl)methyl]piperidin-4-yl}-4-morpholin-4-yl-1H-pyrazolo[3,4-d]pyrimidin-6-yl)phenyl]carbamate] | 6.21 | 6.13 | – | 5.70 | – | – | – |
| COC(=O)Nc1ccc(-c2nc(N3CCOCC3)c3cnn(C4CCN(C(=O)OC(C)(C)C)CC4)c3n2)cc1 [Compound 772, tert-butyl 4-(6-{4-[(methoxycarbonyl)amino]phenyl}-4-morpholin-4-yl-1H-pyrazolo[3,4-d]pyrimidin-1-yl)piperidine-1-carboxylate] | 5.30 | 5.89 | – | 5.26 | – | – | – |
| CNC(=O)Nc1ccc(-c2nc(N3CCOCC3)c3cnn(C4CCN(C(=O)c5ccc(C)cc5)CC4)c3n2)cc1 [Example 367, 1-methyl-3-(4-{1-[1-(4-methylbenzoyl)piperidin-4-yl]-4-morpholin-4-yl-1H-pyrazolo[3,4-d]pyrimidin-6-yl}phenyl)urea] | 7.37 | 7.57 | – | 7.00 | – | – | – |
| CN(C)CC(=O)Nc1ccc(-c2nc(N3CCOCC3)c3cn[nH]c3n2)cc1 [Compound 281, N~2~,N~2~-dimethyl-N-[4-(4-morpholin-4-yl-1H-pyrazolo[3,4-d]pyrimidin-6-yl)phenyl]glycinamide] | 5.64 | 5.15 | – | 4.74 | – | – | – |

The remaining molecules from weak to strong by pIC50 ([1]; PI3Kα, read-out: PI3Kα IC50), led by results:

| pIC50 ([1]; PI3Kα, read-out: PI3Kα IC50) | pIC50 ([2]; Homo sapiens, LNCaP, 72 h) | pIC50 [2] | SMILES | pIC50 ([3]; Homo sapiens, 72 h) | pIC50 [3] | pIC50 ([1]; PI3Kα IC50, PI3Kα) | pIC50 ([2]; Homo sapiens, 72 h) |
| --- | --- | --- | --- | --- | --- | --- | --- |
| 5.22 | 5.55 | – | CN(C)CCCn1ncc2c(N3CCOCC3)nc(-c3ccc4[nH]ccc4c3)nc21 [Compound 160] | 4.82 | – | – | – |
| 5.22 | 4.22 | – | c1ccc(CN2CCC(n3ncc4c(N5CCOCC5)nc(-c5cnc6ccccc6c5)nc43)CC2)cc1 [Compound 230, 3-[1-(1-benzylpiperidin-4-yl)-4-morpholin-4-yl-1H-pyrazolo[3,4-d]pyrimidin-6-yl]quinoline] | 4.66 | – | – | – |
| 5.22 | < 4.22 | – | c1ccc(CN2CCC(n3ncc4c(N5CCOCC5)nc(-c5cnc6ccccc6c5)nc43)CC2)cc1 [Compound 484, 3-[1-(1-benzylpiperidin-4-yl)-4-morpholin-4-yl-1H-pyrazolo[3,4-d]pyrimidin-6-yl]quinoline] | 4.66 | – | – | – |
| 5.53 | 5.92 | – | O=C(NCCF)Nc1cc(F)c(-c2nc(N3CCOCC3)c3cnn(C4CCN(C(=O)c5cccnc5)CC4)c3n2)cc1F [Example 467, 1-(2,5-difluoro-4-{4-morpholin-4-yl-1-[1-(pyridin-3-ylcarbonyl)piperidin-4-yl]-1H-pyrazolo[3,4-d]pyrimidin-6-yl}phenyl)-3-(2-fluoroethyl)urea] | 5.66 | – | – | – |
| 5.87 | 5.72 | – | COC(=O)Nc1ccc(-c2nc(N3CCOCC3)c3cnn(C4CCN(C(=O)C(F)(F)F)CC4)c3n2)cc1 [Compound 811, methyl (4-{4-morpholin-4-yl-1-[1-(trifluoroacetyl)piperidin-4-yl]-1H-pyrazolo[3,4-d]pyrimidin-6-yl}phenyl)carbamate] | 5.34 | – | – | – |
| 6.05 | 5.52 | – | C=CCONC(=O)Nc1ccc(-c2nc(N3CCOCC3)c3cnn(-c4ccccc4)c3n2)cc1 [Compound 542, 1-(allyloxy)-3-[4-(4-morpholin-4-yl-1-phenyl-1H-pyrazolo[3,4-d]pyrimidin-6-yl)phenyl]urea] | 4.22 | – | – | – |
| 6.21 | 6.85 | – | O=C(NCCF)Nc1ccc(-c2nc(N3CCOCC3)c3cnn(C4CCN(Cc5cccnc5)CC4)c3n2)cc1F [Example 374, 1-(2-fluoroethyl)-3-(2-fluoro-4-{4-morpholin-4-yl-1-[1-(pyridin-3-ylmethyl)piperidin-4-yl]-1H-pyrazolo[3,4-d]pyrimidin-6-yl}phenyl)urea] | 5.89 | – | – | – |
| 6.26 | 6.82 | – | CNC(=O)Nc1ccc(-c2nc(N3CCOCC3)c3cnn(C4CCN(C(=O)c5cccnc5)CC4)c3n2)cc1 [Compound 219] | 6.22 | – | – | – |
| 6.32 | 6.00 | – | CN(C)CC=CC(=O)N1CCC(n2ncc3c(N4CCOCC4)nc(-c4ccc5[nH]ccc5c4)nc32)CC1 [Compound 234, 4-{4-[6-(1H-indol-5-yl)-4-morpholin-4-yl-1H-pyrazolo[3,4-d]pyrimidin-1-yl]piperidin-1-yl}-N,N-dimethyl-4-oxobut-2-en-1-amine] | 5.70 | – | – | – |
| 6.40 | 5.00 | – | NNC(=O)Nc1ccc(-c2nc(N3CCOCC3)c3cnn(C4CCN(C(=O)c5cccnc5)CC4)c3n2)cc1 [Example 306, N-(4-{4-morpholin-4-yl-1-[1-(pyridin-3-ylcarbonyl)piperidin-4-yl]-1H-pyrazolo[3,4-d]pyrimidin-6-yl}phenyl)hydrazinecarboxamide] | 4.85 | – | – | – |
| 7.00 | – | 6.60 | CNC(=O)Nc1ccc(-c2nc(N3CCOCC3)c3cnn(C4CCN(C(=O)c5ccc(F)nc5)CC4)c3n2)cc1 [Compound 665, 1-[4-(1-{1-[(6-fluoropyridin-3-yl)carbonyl]piperidin-4-yl}-4-morpholin-4-yl-1H-pyrazolo[3,4-d]pyrimidin-6-yl)phenyl]-3-methylurea] | – | 6.57 | – | – |
| 7.33 | – | > 7.57 | CNC(=O)Nc1ccc(-c2nc(N3CCOCC3)c3cnn(C4CCN(Cc5ccc(Cl)nc5)CC4)c3n2)cc1 [Compound 633, 1-[4-(1-{1-[(6-chloropyridin-3-yl)methyl]piperidin-4-yl}-4-morpholin-4-yl-1H-pyrazolo[3,4-d]pyrimidin-6-yl)phenyl]-3-methylurea] | – | 7.32 | – | – |
